Assay results reported in publication PMC9229255, “New Cladiellin-Type Diterpenoids from the South China Sea Soft Coral Cladiella krempfi: Structures and Molecular Docking Analysis in EGFRs” (Marine Drugs, 2022).

How the values were obtained:
EGFR [1] = target: T1, EGFR (Homo sapiens, UniProt P00533); experiment: EGFR activity assay (kinase inhibition); format: biochemical; details: concentration 20000 nM; read-out: EGFR inhibitory data, Mean (percentage of inhibition)
Description: Six compounds were screened on EGFRs using staurosporine obtained from MedChemExpress (Cat. No. HY-15141; Lot. No. 41248) as the reference compound. In the bioassay for the EGFRs, testing kinases were performed in 1× kinase base buffer containing 50 mM HEPES (pH 7.5) and 0.0015% Brij-35, and stop buffer containing 100 mM HEPES (pH 7.5), 0.0015% Brij-35, 0.2% Coating Reagent #3, and 50 mM EDTA. For the compound preparing part, compounds were diluted to 50X of the final desired highest inhibitor concentration in the reaction by 100% DMSO, and 100 µL of the compound dilution was transferred to a well in a 96-well plate. Additionally, 100 µL of 100% DMSO was added to two empty wells for a no-compound control and a no-enzyme control in the same 96-well plate, which was marked as the source plate. […]. The compounds were mixed in an intermediate plate for 10 min on a shaker. For the assay plate, 5 µL of each well from the 96-well intermediate plate was transferred to a 384-well plate in duplicates. For the kinase reaction, 2.5× enzyme solution and 2.5× peptide solution were prepared. Moreover, 5 µL of compound were settled in the assay plate with 10% DMSO. Additionally, 10 µL of 2.5× enzyme solution was added to each well of the 384-well assay plate that was incubated at room temperature for 10 min. Then, 10 µL of 2.5× peptide solution was added to each well of the 384-well that was incubated at 28 °C for 30 min and stopped by 25 µL stop buffer. The percentage of inhibition was estimated using max-conversion divided by the max-min, and inhibition values were converted by convert conversion values from the caliper program. IC50 values were obtained from fitting the data in the XLfit excel add-in version 4.3.1.

EGFR [2] = target: T1, EGFR; design: method as in PMID 27940262; details: read-out: EGFR inhibitory activity IC50; cited from earlier work
[3] = system: mouse lymphocytic leukemia L1210 cells; design: method as in doi:10.1021/jo00269a027; details: as low as; cited from earlier work

T1 sequence (P00533 25-1210): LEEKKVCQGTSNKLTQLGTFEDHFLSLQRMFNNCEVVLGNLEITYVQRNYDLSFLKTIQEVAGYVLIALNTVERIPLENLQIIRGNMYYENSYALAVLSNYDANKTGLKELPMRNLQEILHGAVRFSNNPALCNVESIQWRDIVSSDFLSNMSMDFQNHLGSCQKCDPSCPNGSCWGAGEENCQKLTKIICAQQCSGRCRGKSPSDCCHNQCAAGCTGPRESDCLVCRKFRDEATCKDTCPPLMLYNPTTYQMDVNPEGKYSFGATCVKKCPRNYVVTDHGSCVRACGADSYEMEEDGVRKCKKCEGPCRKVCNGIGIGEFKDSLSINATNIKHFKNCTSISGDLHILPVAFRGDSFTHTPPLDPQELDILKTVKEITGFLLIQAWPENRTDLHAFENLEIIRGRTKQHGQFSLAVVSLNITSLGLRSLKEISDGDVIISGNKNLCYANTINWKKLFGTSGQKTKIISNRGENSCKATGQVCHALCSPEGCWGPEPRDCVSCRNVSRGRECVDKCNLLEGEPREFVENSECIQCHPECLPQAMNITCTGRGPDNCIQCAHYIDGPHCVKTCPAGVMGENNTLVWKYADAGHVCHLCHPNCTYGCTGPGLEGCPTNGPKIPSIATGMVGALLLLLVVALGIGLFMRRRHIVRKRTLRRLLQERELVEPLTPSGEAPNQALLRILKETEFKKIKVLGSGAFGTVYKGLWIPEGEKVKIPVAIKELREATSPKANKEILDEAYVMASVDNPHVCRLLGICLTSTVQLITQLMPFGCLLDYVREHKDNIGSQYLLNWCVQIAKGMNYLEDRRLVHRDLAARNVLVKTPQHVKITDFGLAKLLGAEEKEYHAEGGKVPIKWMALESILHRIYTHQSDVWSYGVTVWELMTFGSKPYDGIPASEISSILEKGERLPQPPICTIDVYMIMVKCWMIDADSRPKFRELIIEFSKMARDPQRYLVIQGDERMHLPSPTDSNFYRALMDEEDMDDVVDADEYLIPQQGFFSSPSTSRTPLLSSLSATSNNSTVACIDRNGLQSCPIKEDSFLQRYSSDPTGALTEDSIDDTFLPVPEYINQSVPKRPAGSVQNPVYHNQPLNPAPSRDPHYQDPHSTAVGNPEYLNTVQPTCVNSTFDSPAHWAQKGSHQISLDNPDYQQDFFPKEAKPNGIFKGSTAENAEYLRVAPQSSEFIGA

| inhibition at 20 µM (EGFR [1]) [%] | Structure (SMILES) | further results |
| --- | --- | --- |
| -9.9 | C=C1C(O)CCC(C)(OC(=O)CCC)C2OC(C1OC(C)=O)C1C(=C)C(O)CC(C(C)C)C12 (stereo not drawn) [Compound 1, litophynol C] | melting point: 183 to 184 °C |
| -12.5 | C=C1C(OO)CCC(C)(OC(=O)CCC)C2OC(C1OC(C)=O)C1C(=C)C(O)CC(C(C)C)C12 (stereo not drawn) [Compound 2, litophynol D] | – |
| -3.8 | C=C1CC[C@H](C(C)C)[C@@H]2[C@H]1[C@@H]1O[C@H]2[C@](C)(OC(=O)CCC)CC[C@H](O)C(=C)[C@H]1O [Compound 3, litophynol A] | – |
| -3.4 | C=C1CC[C@H](C(C)C)[C@@H]2[C@H]1[C@@H]1O[C@H]2[C@](C)(OC(=O)CCC)CC[C@H](O)C(=C)[C@H]1OC(=O)CCC [Compound 4, 8-butyryl-litophynol A] | – |
| -7.5 | C=C1CC[C@H](C(C)C)[C@@H]2[C@H]1[C@@H]1O[C@H]2[C@](C)(OC(=O)CCC)CC[C@H](OC)[C@@](C)(O)[C@H]1O [Compound 5, kremfielin B] | – |
| -4.9 | C=C1CC[C@H](C(C)C)[C@@H]2[C@H]1[C@H]1C[C@](C)(O)[C@@H](O)CC[C@@](C)(OC(=O)CCC)[C@@H]2O1 [Compound 6, litophynin E] | – |
| – | CCCC(=O)O[C@]1(C)CC[C@H](C(C)C)[C@@H]2[C@H]1[C@H]1C[C@](C)(O)[C@@H](O)CC[C@@](C)(OC(C)=O)[C@@H]2O1 [pachycladin A] | IC50 (EGFR [2]): 500 nM |
| – | C=C1CC[C@H](C(C)C)[C@@H]2[C@H]1[C@H]1C[C@](C)(O)[C@@H](O)CC[C@@](C)(O)[C@@H]2O1 [sclerophytin A] | concentration showing significant cytotoxicity [3]: 1 ng/mL |
